Experimental findings from US10633394B2, “Heterocyclic derivatives and use thereof” (C & C RESEARCH LABORATORIES, priority 2014, dated 2020) are described below.

Where only a bound is given, the exact number is not on record here.

Type in all cases: cell-based
One experiment has as its system MDA-MB-468. Description: Cell growth inhibition assay (CellTiter-Glo), breast cancer cell line MDA-MB-468. The following applies: Homo sapiens; MDA-MB-468 cells, 96 hours. The procedure: (§1) The inhibitory effects of the compounds of the present invention against the growth of cancer cells were evaluated as shown below. The cancer cell lines including stomach cancer cell line (NCI-N87) and breast cancer cell line (MDA-MB-468) were cultured under the protocol provided by each supplier. Each type of cells to be used in experiments was sub-cultured in a 96-well plate by counting the exact number of cells using Tali™ Image-based Cytometer (Life Technologies). In a 96-well plate, NCI-N87 was employed with 5,000 cells/well; and MDA-MB-468 was employed with 10,000 cells/well. The cells were treated with the compounds listed in Examples which were diluted in various concentrations. Upon completion of the compounds treatment, NCI-N87 cells were cultured at 37° C. under 5% CO2 for 96 hours, and MDA-MB-468 cells were cultured at 37° C. in air for 96 hours. Subsequently, the cells were observed under microscope and drug precipitation and particular findings were investigated and recorded. And then, the 96-well plate was placed at room temperature for 30 minutes, added with 20 μL/well of CellTiter-Glo solution (Cat No. G7573, Promega) and shaken for 10 minutes, followed by being subjected to the measurement using PHERAstar™ microplate reader (BMG LABTECH) according to the supplier's general luminometer protocol. Wells where only culture liquid added without cell plating were used as a negative control, whereas wells where culture liquid containing 0.1% DMSO instead of the compounds listed in Examples were used as a positive control.
On the technique in general: In ATP-based viability assays light output follows the ATP content of the culture.

The test system of the next experiment is NCI-N87. The experiment in a line: Cell growth inhibition assay (CellTiter-Glo), stomach cancer cell line NCI-N87. To be noted: Homo sapiens; NCI-N87 cells, 96 hours. As to the method: as §1
The target in the next experiment is T1, STAT3 (Homo sapiens, UniProt P40763).
T1 construct: plasmid pSTAT3-TA-luc), which contains a stably operating STAT3 promoter; endogenous in cells
T1 sequence (P40763 whole entry): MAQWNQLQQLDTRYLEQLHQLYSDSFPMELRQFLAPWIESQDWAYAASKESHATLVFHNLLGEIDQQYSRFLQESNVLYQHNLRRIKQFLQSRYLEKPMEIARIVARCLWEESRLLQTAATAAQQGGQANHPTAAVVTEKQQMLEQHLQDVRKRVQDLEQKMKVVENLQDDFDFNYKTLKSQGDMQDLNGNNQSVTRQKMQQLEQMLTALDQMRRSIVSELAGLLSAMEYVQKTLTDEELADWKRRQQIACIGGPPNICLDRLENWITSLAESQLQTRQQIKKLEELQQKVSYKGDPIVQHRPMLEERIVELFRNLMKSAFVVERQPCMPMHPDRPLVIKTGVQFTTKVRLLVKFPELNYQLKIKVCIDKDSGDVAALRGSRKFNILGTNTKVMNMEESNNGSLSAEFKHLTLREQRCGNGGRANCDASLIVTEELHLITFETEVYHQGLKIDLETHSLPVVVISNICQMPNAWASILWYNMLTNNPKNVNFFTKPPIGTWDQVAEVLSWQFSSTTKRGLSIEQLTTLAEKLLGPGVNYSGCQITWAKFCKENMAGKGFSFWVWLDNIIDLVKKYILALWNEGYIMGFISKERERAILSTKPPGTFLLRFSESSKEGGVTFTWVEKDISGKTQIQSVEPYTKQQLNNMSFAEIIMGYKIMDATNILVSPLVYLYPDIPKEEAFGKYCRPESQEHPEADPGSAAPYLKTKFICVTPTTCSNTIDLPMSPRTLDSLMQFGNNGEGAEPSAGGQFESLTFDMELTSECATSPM
Description: STAT3 reporter gene (luciferase) assay in LNCaP stable cell line stimulated with IL-6. The following applies: LNCaP stable cell line (pSTAT3-TA-luc), IL-6 10 ng/mL, 24 hours. The procedure:
1-1) Experiment on the Inhibition of STAT3 Activity
A human prostate cancer cell line (LNCaP stable cell line; plasmid pSTAT3-TA-luc), which contains a stably operating STAT3 promoter, was cultured in RPMI1640 medium (Cat No. 11875, Life Technologies) containing 10% fetal bovine serum (FBS) (Cat No. SH30396, Thermo Scientific) and 150 μg/mL G-418 solution (Cat No. 04 727 894 001, Roche). The reporter gene assay using LNCaP stable cell line was performed in RPMI1640 medium containing 3% DCC-FBS without G-418 solution. LNCaP stable cells were plated in two (2) white 96-well plates with 30,000 cells/50 μL in each well. The cells were cultured at 37° C., under 5% CO2 for 24 hours, and then treated with the compounds listed in Examples which were diluted in various concentrations. Subsequently, IL-6 was added to each well with a final concentration of 10 ng/mL. Upon completion of the treatment with the compounds and IL-6, the cells were cultured at 37° C., under 5% CO2 for 24 hours. The plates were observed under microscope and drug precipitation and particular findings were investigated and recorded.
The luciferase assay and the cell viability assay were performed respectively with one of the two plates. For the luciferase assay, the liquid media in the 96-well plate was removed, and then, 20 μL of passive cell lysis buffer was added to each well. After shaking the plate for 30 minutes, luciferase activities of each well were measured in a PHERAstar™ microplate reader (BMG LABTECH) using a luciferase assay system (Cat No. E1501, Promega). For the cell viability assay, the 96-well plate was placed at room temperature for 30 minutes, added with 20 μL/well of CellTiter-Glo solution (Cat No. G7573, Promega), and shaken for 10 minutes in order to measure cytotoxicity caused by the compounds listed in Examples with a PHERAstar™ microplate reader (BMG LABTECH). Wells without 0.1% DMSO and stimulation were used as a negative control and wells with 0.1% DMSO and stimulation were used as a positive control.
The results of evaluation on the inhibitory effect of the compounds listed in the Examples on the dimerization of STAT3 and STAT1 obtained via the STAT3 and STAT1 reporter gene assays are shown in Table 6 below.

For `CS(=O)(=O)[C@]1(F)CCOc2cc3sc(C(=O)Nc4cc(Cl)nc(Oc5ccc(Cl)cc5)c4)cc3cc21` [Example 46, (R)—N-(2-chloro-6-(4-chlorophenoxy)pyridin-4-yl)-4-fluoro-4-(methylsulfonyl)-3,4-dihydro-2H-thieno[3,2-g]chromene-7-carboxamide], the values for the IC50 in the experiment on MDA-MB-468, with NCI-N87 and on STAT3 were greater than 0.1 µM, 0.56 µM and 0.14 µM, respectively.
On to `N#CC1CCOc2cc3sc(C(=O)Nc4cc(Cl)nc(Oc5ccc(Cl)cc5)c4)cc3cc21` (stereo not drawn) [Example 54, N-(2-chloro-6-(4-chlorophenoxy)pyridin-4-yl)-4-cyano-3,4-dihydro-2H-thieno[3,2-g]chromene-7-carboxamide], for which the IC50 – broadly, the concentration that gives 50% inhibition – worked out at 0.075 µM with MDA-MB-468, 0.32 µM in the experiment on NCI-N87 and 0.18 µM against STAT3.
The corresponding values for `CS(=O)(=O)C1CCOc2cc3sc(C(=O)Nc4cc(Cl)nc(Oc5cc(F)cc(Cl)c5)c4)cc3cc21` (stereo not drawn) [Example 31, N-(2-chloro-6-(3-chloro-5-fluorophenoxy)pyridin-4-yl)-4-(methylsulfonyl)-3,4-dihydro-2H-thieno[3,2-g]chromene-7-carboxamide] are 0.0022 µM, 0.009 µM and 0.008 µM.
For `O=C(Nc1cc(Cl)nc(Oc2ccc(Cl)cc2)c1)c1cc2cc3c(cc2s1)OCCC3n1cccn1` (stereo not drawn) [Example 52, N-(2-chloro-6-(4-chlorophenoxy)pyridin-4-yl)-4-(1H-pyrazol-1-yl)-3,4-dihydro-2H-thieno[3,2-g]chromene-7-carboxamide], the IC50 was determined as 0.12 µM in the experiment on MDA-MB-468, 0.4 µM with NCI-N87 and 0.1 µM against STAT3.
`Cc1cc(Oc2cc(NC(=O)c3cc4cc5c(cc4s3)OCCC5S(C)(=O)=O)cc(Cl)n2)ccc1Cl` (stereo not drawn) [Example 20, N-(2-chloro-6-(4-chloro-3-methylphenoxy)pyridin-4-yl)-4-(methylsulfonyl)-3,4-dihydro-2H-thieno[3,2-g]chromene-7-carboxamide]: the values for the IC50 with MDA-MB-468, with NCI-N87 and against STAT3 were 0.0024 µM, 0.0094 µM and 0.01 µM, respectively.
Consider `CS(=O)(=O)C1CCOc2cc3sc(C(=O)Nc4cc(Cl)nc(Oc5cccc(Cl)c5)c4)cc3cc21` (stereo not drawn) [Example 25, N-(2-chloro-6-(3-chlorophenoxy)pyridin-4-yl)-4-(methylsulfonyl)-3,4-dihydro-2H-thieno[3,2-g]chromene-7-carboxamide], for which the results for the IC50 in the experiment with MDA-MB-468, with NCI-N87 and against STAT3 were 0.0049 µM, 0.01 µM and 0.011 µM, respectively.
As for `Cc1ccc(Oc2cc(NC(=O)c3cc4cc5c(cc4s3)OCCC5S(C)(=O)=O)cc(Cl)n2)cc1` (stereo not drawn) [Example 15, N-(2-chloro-6-(p-tolyloxy)pyridin-4-yl)-4-(methylsulfonyl)-3,4-dihydro-2H-thieno[3,2-g]chromene-7-carboxamide], the figures for the IC50 in the experiment on MDA-MB-468, with NCI-N87 and against STAT3 were 0.0089 µM, 0.035 µM and 0.018 µM, respectively.
Turning to `CS(=O)(=O)C1CCOc2cc3sc(C(=O)Nc4cc(Cl)nc(Oc5cccc(C(F)(F)F)c5)c4)cc3cc21` (stereo not drawn) [Example 16, N-(2-chloro-6-(3-(trifluoromethyl)phenoxy)pyridin-4-yl)-4-(methylsulfonyl)-3,4-dihydro-2H-thieno[3,2-g]chromene-7-carboxamide], the values for the IC50 with MDA-MB-468, in the experiment on NCI-N87 and at STAT3 were 0.0039 µM, 0.021 µM and 0.0051 µM, respectively.
Turning to `CS(=O)(=O)C1CCOc2cc3sc(C(=O)Nc4cc(Cl)nc(Oc5ccc(F)c(F)c5)c4)cc3cc21` (stereo not drawn) [Example 34, N-(2-chloro-6-(3,4-difluorophenoxy)pyridin-4-yl)-4-(methylsulfonyl)-3,4-dihydro-2H-thieno[3,2-g]chromene-7-carboxamide], the IC50 was 0.0023 µM in the experiment with MDA-MB-468, 0.0092 µM in the experiment with NCI-N87 and 0.0064 µM against STAT3.
On to `CS(=O)(=O)C1CCOc2cc3sc(C(=O)Nc4cc(Cl)nc(Oc5ccc(Cl)c(Cl)c5)c4)cc3cc21` (stereo not drawn) [Example 24, N-(2-chloro-6-(3,4-dichlorophenoxy)pyridin-4-yl)-4-(methylsulfonyl)-3,4-dihydro-2H-thieno[3,2-g]chromene-7-carboxamide], for which the values for the IC50 with MDA-MB-468, with NCI-N87 and at STAT3 were 0.0024 µM, 0.0038 µM and 0.0062 µM, respectively.
In the case of `CS(=O)(=O)C1(F)CCOc2cc3sc(C(=O)Nc4cc(Cl)nc(Oc5ccc(Cl)cc5)c4)cc3cc21` (stereo not drawn) [Example 13, N-(2-chloro-6-(4-chlorophenoxy)pyridin-4-yl)-4-fluoro-4-(methylsulfonyl)-3,4-dihydro-2H-thieno[3,2-g]chromene-7-carboxamide], the IC50 in the experiment with MDA-MB-468 came out at 0.0066 µM; with NCI-N87, 0.025 µM; on STAT3 it was 0.0081 µM.
Regarding `CS(=O)(=O)C1CCOc2cc3sc(C(=O)Nc4cc(Cl)nc(Oc5ccc(Cl)cc5)c4)cc3cc21` (racemic) [Example 8, N-(2-chloro-6-(4-chlorophenoxy)pyridin-4-yl)-4-(methylsulfonyl)-3,4-dihydro-2H-thieno[3,2-g]chromene-7-carboxamide], the values for the IC50 in the experiment with MDA-MB-468, in the experiment on NCI-N87 and against STAT3 were 0.0032 µM, 0.031 µM and 0.024 µM, respectively.
As to `CS(=O)(=O)C1CCOc2cc3sc(C(=O)Nc4cc(Cl)nc(Oc5ccc(F)c(Cl)c5)c4)cc3cc21` (stereo not drawn) [Example 27, N-(2-chloro-6-(3-chloro-4-fluorophenoxy)pyridin-4-yl)-4-(methylsulfonyl)-3,4-dihydro-2H-thieno[3,2-g]chromene-7-carboxamide], the IC50 was 0.0029 µM in the experiment with MDA-MB-468, 0.0049 µM in the experiment on NCI-N87 and 0.0078 µM against STAT3.
Consider `O=C(Nc1cc(Cl)nc(Oc2ccc(Cl)cc2)c1)c1cc2cc3c(cc2s1)OCCC3N1CCCC1=O` (stereo not drawn) [Example 53, N-(2-chloro-6-(4-chlorophenoxy)pyridin-4-yl)-4-(2-oxopyrrolidin-1-yl)-3,4-dihydro-2H-thieno[3,2-g]chromene-7-carboxamide], for which the IC50 was found to be 0.71 µM with MDA-MB-468, 4.4 µM in the experiment on NCI-N87 and 5.2 µM at STAT3.
The matching figures for `CS(=O)(=O)C1CCOc2cc3sc(C(=O)Nc4cc(Cl)nc(Oc5ccc(Cl)cc5F)c4)cc3cc21` (stereo not drawn) [Example 23, N-(2-chloro-6-(4-chloro-2-fluorophenoxy)pyridin-4-yl)-4-(methylsulfonyl)-3,4-dihydro-2H-thieno[3,2-g]chromene-7-carboxamide]: 0.0028 µM, 0.0056 µM and 0.0063 µM.
The corresponding values for `C[C@@]1(S(C)(=O)=O)CCOc2cc3sc(C(=O)Nc4cc(Cl)nc(Oc5ccc(Cl)cc5)c4)cc3cc21` [Example 48, (R)—N-(2-chloro-6-(4-chlorophenoxy)pyridin-4-yl)-4-methyl-4-(methylsulfonyl)-3,4-dihydro-2H-thieno[3,2-g]chromene-7-carboxamide] are greater than 0.1 µM, 0.79 µM and 0.15 µM.
Regarding `COc1cc(Cl)ccc1Oc1cc(NC(=O)c2cc3cc4c(cc3s2)OCCC4S(C)(=O)=O)cc(Cl)n1` (stereo not drawn) [Example 42, N-(2-chloro-6-(4-chloro-2-methoxyphenoxy)pyridin-4-yl)-4-(methylsulfonyl)-3,4-dihydro-2H-thieno[3,2-g]chromene-7-carboxamide], the IC50 in the experiment with MDA-MB-468 was 0.0078 µM; in the experiment with NCI-N87 it was 0.024 µM; at STAT3 it was 0.023 µM.
